Source: patent publication US7294636B2, “Chemical compounds” (AstraZeneca AB, priority 2003, dated 2007)

Biological target: recombinant human CCR5 receptor (Homo sapiens, UniProt P51681)
Test: in vitro radioligand binding assay, inhibition of MIP-1α binding (scintillation proximity)
Details: displacement of 0.1 nM iodinated MIP-1α; membranes from Chinese hamster ovary cells expressing CCR5; negative log10 of IC50 (M); average if tested more than once
Procedure: The ability of compounds to inhibit the binding of MIP-1α was assessed by an in vitro radioligand binding assay. Membranes were prepared from Chinese hamster ovary cells which expressed the recombinant human CCR5 receptor. These membranes were incubated with 0.1 nM iodinated MIP-1α, scintillation proximity beads and various concentrations of the compounds of the invention in 96-well plates. The amount of iodinated MP-1α bound to the receptor was determined by scintillation counting. Competition curves were obtained for compounds and the concentration of compound which displaced 50% of bound iodinated MIP-1α was calculated (IC50).
In Table III the results are presented as Pic50 values. […] If a compound was tested more than once then the data below is an average of the probative tests results.

recombinant human CCR5 receptor, sequence (P51681 whole entry): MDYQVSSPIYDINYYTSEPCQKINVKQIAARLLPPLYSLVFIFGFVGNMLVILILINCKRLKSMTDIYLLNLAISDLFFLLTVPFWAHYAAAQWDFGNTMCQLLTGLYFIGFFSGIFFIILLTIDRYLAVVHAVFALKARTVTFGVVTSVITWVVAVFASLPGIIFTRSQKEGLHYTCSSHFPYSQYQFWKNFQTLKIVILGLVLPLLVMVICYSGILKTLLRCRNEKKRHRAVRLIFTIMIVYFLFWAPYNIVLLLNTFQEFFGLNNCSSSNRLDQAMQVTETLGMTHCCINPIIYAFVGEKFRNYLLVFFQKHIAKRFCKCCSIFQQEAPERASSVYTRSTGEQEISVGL

## Cc1nnc(C(C)C)n1C1CCN(CC[C@H](c2ccc(S(C)(=O)=O)cc2)c2cccc(F)c2)CC1 [Compound No. 2]
  IC50: 3.98e-08 M

## CS(=O)(=O)c1ccc([C@@H](CCN2CCC(n3cnc4cc(S(C)(=O)=O)ccc43)CC2)c2cccc(F)c2)cc1 [Compound No. 1, (R)-1-{1-[3-(3-fluoro-phenyl)-3-(4-methanesulfonyl-phenyl)-propyl]-piperidin-4-yl}-5-methanesulfonyl-1H-benzoimidazole]
  IC50: 1e-09 M

## CSc1ccc(Cc2noc(C3CCN(CCC(c4ccccc4)c4ccc(S(C)(=O)=O)cc4)CC3)n2)cc1 (stereo not shown) [Compound No. 6]
  IC50: 6.31e-08 M

## CS(=O)(=O)c1ccc(Cc2noc(C3CCN(CC[C@@H](c4ccccc4)c4ccc(S(C)(=O)=O)cc4)CC3)n2)cc1 [Compound No. 3]
  IC50: 1.26e-09 M

## Cc1noc(C2CCN(CC[C@@H](c3ccccc3)c3ccc(S(C)(=O)=O)cc3)CC2)n1 [Compound No. 13]
  IC50: 1.58e-07 M

## CS(=O)(=O)c1ccc([C@@H](CCN2CCC(n3cnc4cc(S(C)(=O)=O)ccc43)CC2)c2ccccc2)cc1 [Compound No. 5]
  IC50: 3.98e-09 M

## CS(=O)(=O)c1ccc([C@@H](CCN2CCC(n3cnc4cc(S(C)(=O)=O)ccc43)CC2)c2ccsc2)cc1 [Compound No. 7]
  IC50: 1e-08 M

## CS(=O)(=O)c1ccc([C@@H](CCN2CCC(c3nc(Cc4ccccc4)no3)CC2)c2ccccc2)cc1 [Compound No. 4]
  IC50: 1.58e-08 M

## CS(=O)(=O)c1ccc([C@@H](CCN2CCC(n3cnc4cc(S(C)(=O)=O)ccc43)CC2)c2ccc(Cl)s2)cc1 [Compound No. 9]
  IC50: 2e-08 M

## CS(=O)(=O)c1ccc([C@@H](CCN2CCC(n3cnc4cc(S(C)(=O)=O)ccc43)CC2)c2cccs2)cc1 [Compound No. 8]
  IC50: 1e-08 M

## CS(=O)(=O)c1ccc([C@@H](CCN2CCC(n3cnc4cc(S(C)(=O)=O)ccc43)CC2)c2cc(Cl)cs2)cc1 [Compound No. 10]
  IC50: 2e-08 M

## Cc1nnc(C(C)C)n1C1CCN(CC[C@H](c2ccc(S(C)(=O)=O)cc2)c2cc(F)cc(F)c2)CC1 [Compound No. 12]
  IC50: 2e-08 M

## CS(=O)(=O)c1ccc([C@@H](CCN2CCC(n3cnc4cc(S(C)(=O)=O)ccc43)CC2)c2cc(F)cc(F)c2)cc1 [Compound No. 11]
  IC50: 1e-09 M
